Experimental data reported in publication PMC5218480 (PLoS ONE, 2017).

Tested on: MV-4-11 cells
Assay: Gene expression microarray analysis (Affymetrix PrimeView) and GSEA
Type: cell-based, human
Parameters: RFU PODN (11730768_x_at) / Fold change /veh PODN (11730768_x_at) / RFU LINC00158 (11744669_a_at) / Fold change /veh LINC00158 (11744669_a_at) / RFU DUSP10 (11751237_a_at) / Fold change /veh DUSP10 (11751237_a_at) / RFU ID3 (11757404_x_at) / Fold change /veh ID3 (11757404_x_at) / RFU PLEKHG5 (11737974_s_at) / Fold change /veh PLEKHG5 (11737974_s_at) / RFU LRRC4B (11730491_at) / Fold change /veh LRRC4B (11730491_at) / RFU GIMAP4 (11747438_a_at) / Fold change /veh GIMAP4 (11747438_a_at) / RFU KRT8 (11758183_x_at) / Fold change /veh KRT8 (11758183_x_at) / RFU CNN1 (11734310_a_at) / Fold change /veh CNN1 (11734310_a_at) / RFU VPS37D (11726825_at) / Fold change /veh VPS37D (11726825_at) / RFU C10orf10 (11716522_x_at) / Fold change /veh C10orf10 (11716522_x_at) / RFU KIR2DL2 /// KIR2DL4 /// KIR2DL5A /// KIR2DL5B /// KIR2DS1 /// KIR2DS2 /// KIR2DS3 /// KIR2DS4 /// KIR3DL3 /// KIR3DL3 /// KIR3DS1 (11738374_at) / Fold change /veh KIR2DL2 /// KIR2DL4 /// KIR2DL5A /// KIR2DL5B /// KIR2DS1 /// KIR2DS2 /// KIR2DS3 /// KIR2DS4 /// KIR3DL3 /// KIR3DL3 /// KIR3DS1 (11738374_at) / RFU C1QL1 (11718748_at) / Fold change /veh C1QL1 (11718748_at) / RFU TMPRSS4 (11747572_a_at) / Fold change /veh TMPRSS4 (11747572_a_at) / RFU HAMP (11756126_x_at) / Fold change /veh HAMP (11756126_x_at) / RFU RNFT2 (11725882_a_at) / Fold change /veh RNFT2 (11725882_a_at) / RFU NR4A2 (11747474_a_at) / Fold change /veh NR4A2 (11747474_a_at) / RFU ABCC12 (11746883_a_at) / Fold change /veh ABCC12 (11746883_a_at) / RFU TMEM136 (11760407_x_at) / Fold change /veh TMEM136 (11760407_x_at) / RFU CLDN22 /// WWC2 (11732394_at) / Fold change /veh CLDN22 /// WWC2 (11732394_at) / RFU HLA-DPB1 (11760878_x_at) / Fold change /veh HLA-DPB1 (11760878_x_at) / RFU SPINT1 (11716480_a_at) / Fold change /veh SPINT1 (11716480_a_at) / RFU GAP43 (11754022_s_at) / Fold change /veh GAP43 (11754022_s_at) / RFU A4GNT (11735810_at) / Fold change /veh A4GNT (11735810_at) / RFU PRB3 (11715151_x_at) / Fold change /veh PRB3 (11715151_x_at) / RFU TUBB4B (11761932_at) / Fold change /veh TUBB4B (11761932_at) / RFU CAPN14 (11732068_a_at) / Fold change /veh CAPN14 (11732068_a_at) / RFU TMCC2 (11721928_a_at) / Fold change /veh TMCC2 (11721928_a_at) / RFU IRGQ (11745062_a_at) / Fold change /veh IRGQ (11745062_a_at) / RFU FAM174B (11720279_a_at) / Fold change /veh FAM174B (11720279_a_at) / RFU TMPRSS4 (11748680_a_at) / Fold change /veh TMPRSS4 (11748680_a_at) / RFU FAM212B (11763350_a_at) / Fold change /veh FAM212B (11763350_a_at) / RFU PLEKHG5 (11743358_a_at) / Fold change /veh PLEKHG5 (11743358_a_at) / RFU ZSCAN30 (11745921_a_at) / Fold change /veh ZSCAN30 (11745921_a_at) / RFU CMKLR1 (11741424_a_at) / Fold change /veh CMKLR1 (11741424_a_at) / RFU LOC101060620 /// MAPK8IP1 (11723275_at) / Fold change /veh LOC101060620 /// MAPK8IP1 (11723275_at) / RFU SPTSSB (11747773_x_at) / Fold change /veh SPTSSB (11747773_x_at) / RFU PRSS12 (11739890_at) / Fold change /veh PRSS12 (11739890_at) / RFU BIN1 (11741810_x_at) / Fold change /veh BIN1 (11741810_x_at) / RFU WNT11 (11732464_a_at) / Fold change /veh WNT11 (11732464_a_at) / RFU C10orf10 (11716521_a_at) / Fold change /veh C10orf10 (11716521_a_at) / RFU C5orf56 (11738089_at) / Fold change /veh C5orf56 (11738089_at) / RFU CYB561 (11721691_x_at) / Fold change /veh CYB561 (11721691_x_at) / RFU ANKRD19P (11752326_a_at) / Fold change /veh ANKRD19P (11752326_a_at) / RFU OR2T12 /// OR2T33 /// OR2T8 (11738714_s_at) / Fold change /veh OR2T12 /// OR2T33 /// OR2T8 (11738714_s_at) / RFU VCAN (11748164_a_at) / Fold change /veh VCAN (11748164_a_at) / RFU JSRP1 (11732532_at) / Fold change /veh JSRP1 (11732532_at) / RFU KRTAP10-11 (11738290_x_at) / Fold change /veh KRTAP10-11 (11738290_x_at) / RFU MYO3A (11730013_a_at) / Fold change /veh MYO3A (11730013_a_at) / RFU EBF3 (11725865_a_at) / Fold change /veh EBF3 (11725865_a_at) / RFU CAMK2N1 (11719241_x_at) / Fold change /veh CAMK2N1 (11719241_x_at) / RFU C5orf56 (11738088_a_at) / Fold change /veh C5orf56 (11738088_a_at) / RFU OLFML3 (11715873_a_at) / Fold change /veh OLFML3 (11715873_a_at) / RFU LOC100653217 /// NTM (11731650_a_at) / Fold change /veh LOC100653217 /// NTM (11731650_a_at) / RFU MAPK11 (11762145_a_at) / Fold change /veh MAPK11 (11762145_a_at) / RFU FIZ1 (11724087_x_at) / Fold change /veh FIZ1 (11724087_x_at) / RFU OASL (11726364_x_at) / Fold change /veh OASL (11726364_x_at) / RFU SOX15 (11748057_x_at) / Fold change /veh SOX15 (11748057_x_at) / RFU CD79A (11719716_a_at) / Fold change /veh CD79A (11719716_a_at) / RFU HIST1H1D (11736915_at) / Fold change /veh HIST1H1D (11736915_at) / RFU CASKIN2 (11723855_a_at) / Fold change /veh CASKIN2 (11723855_a_at) / RFU LOC730098 (11760151_x_at) / Fold change /veh LOC730098 (11760151_x_at) / RFU OR4N2 (11742367_at) / Fold change /veh OR4N2 (11742367_at) / RFU PRRT2 (11749266_a_at) / Fold change /veh PRRT2 (11749266_a_at) / RFU SNX32 (11753110_a_at) / Fold change /veh SNX32 (11753110_a_at) / RFU CDHR5 (11726645_a_at) / Fold change /veh CDHR5 (11726645_a_at) / RFU RCAN1 (11760418_a_at) / Fold change /veh RCAN1 (11760418_a_at) / RFU FAM167A (11723789_a_at) / Fold change /veh FAM167A (11723789_a_at) / RFU FAM26E (11764081_at) / Fold change /veh FAM26E (11764081_at) / RFU ISYNA1 (11749810_s_at) / Fold change /veh ISYNA1 (11749810_s_at) / RFU ACY1 (11761880_at) / Fold change /veh ACY1 (11761880_at) / RFU 11764098_at / Fold change /veh 11764098_at / RFU SAMD14 (11745864_x_at) / Fold change /veh SAMD14 (11745864_x_at) / RFU NPB (11741838_a_at) / Fold change /veh NPB (11741838_a_at) / RFU TMPRSS6 (11731388_a_at) / Fold change /veh TMPRSS6 (11731388_a_at) / RFU KRTAP10-2 (11738614_at) / Fold change /veh KRTAP10-2 (11738614_at) / RFU ARHGAP8 /// PRR5-ARHGAP8 (11727945_x_at) / Fold change /veh ARHGAP8 /// PRR5-ARHGAP8 (11727945_x_at) / RFU KRTAP5-7 /// NADSYN1 (11734609_at) / Fold change /veh KRTAP5-7 /// NADSYN1 (11734609_at) / RFU RASL12 (11751679_a_at) / Fold change /veh RASL12 (11751679_a_at) / RFU CDKN2B (11736163_a_at) / Fold change /veh CDKN2B (11736163_a_at) / RFU PRF1 (11729649_at) / Fold change /veh PRF1 (11729649_at) / RFU, ZNF638 /// ZNF638-IT1 / Fold change vs veh, ZNF638 /// ZNF638-IT1 / RFU, PANK3 / Fold change vs veh, PANK3 / RFU, SH3YL1 / Fold change vs veh, SH3YL1 / RFU, ZEB2 / Fold change vs veh, ZEB2 / RFU, NRIP1 / Fold change vs veh, NRIP1 / RFU, PTTG1IP / Fold change vs veh, PTTG1IP / RFU, CAPN2 / Fold change vs veh, CAPN2 / RFU, MED14 / Fold change vs veh, MED14 / RFU, SNORA58 / Fold change vs veh, SNORA58 / RFU, C1orf63 / Fold change vs veh, C1orf63 / RFU, LRRFIP1 / Fold change vs veh, LRRFIP1 / RFU, NDUFAF7 / Fold change vs veh, NDUFAF7 / RFU, SLC12A2 / Fold change vs veh, SLC12A2 / RFU, IBTK / Fold change vs veh, IBTK / RFU, ESF1 / Fold change vs veh, ESF1 / Fold change vs veh, TMEM50B / RFU, TAOK1 / Fold change vs veh, TAOK1 / RFU, ACBD3 / Fold change vs veh, ACBD3 / RFU, TMA16 / Fold change vs veh, TMA16 / RFU, RWDD3 / Fold change vs veh, RWDD3 / RFU, BCAT1 / Fold change vs veh, BCAT1 / RFU, EDEM3 / Fold change vs veh, EDEM3 / RFU, TMEM33 / Fold change vs veh, TMEM33 / RFU, WDR75 / Fold change vs veh, WDR75 / RFU, AHCTF1 / Fold change vs veh, AHCTF1 / RFU, TFRC / Fold change vs veh, TFRC / RFU, ZDHHC17 / Fold change vs veh, ZDHHC17 / RFU, NOM1 / Fold change vs veh, NOM1 / RFU, ARL8B / Fold change vs veh, ARL8B / RFU, ZBTB11 / Fold change vs veh, ZBTB11 / RFU, TAMM41 / Fold change vs veh, TAMM41 / RFU, KIAA1704 /// LOC100996395 / Fold change vs veh, KIAA1704 /// LOC100996395 / RFU, ING1 / Fold change vs veh, ING1 / RFU, TRMT61B / Fold change vs veh, TRMT61B / RFU, FUBP3 / Fold change vs veh, FUBP3 / RFU, TP53 / Fold change vs veh, TP53 / RFU, TNKS2 / Fold change vs veh, TNKS2 / RFU, ZFP14 / Fold change vs veh, ZFP14 / RFU, ACTR2 / Fold change vs veh, ACTR2 / RFU, PPP3R1 / Fold change vs veh, PPP3R1 / RFU, PIK3R1 / Fold change vs veh, PIK3R1 / RFU, HNRNPA1 / Fold change vs veh, HNRNPA1 / RFU, RNF170 / Fold change vs veh, RNF170 / RFU, ZNF28 / Fold change vs veh, ZNF28 / RFU, RNGTT / Fold change vs veh, RNGTT / RFU, OGT / Fold change vs veh, OGT / RFU, BRD1 / Fold change vs veh, BRD1 / RFU, MARS / Fold change vs veh, MARS / RFU, ZNF655 / Fold change vs veh, ZNF655 / RFU, FAHD1 / Fold change vs veh, FAHD1 / RFU, BDP1 / Fold change vs veh, BDP1 / RFU, LRRCC1 / Fold change vs veh, LRRCC1 / RFU, ARID1A / Fold change vs veh, ARID1A / RFU, ZNF146 / Fold change vs veh, ZNF146 / RFU, ZNF330 / Fold change vs veh, ZNF330 / RFU, GPN3 / Fold change vs veh, GPN3 / RFU, C9orf123 / Fold change vs veh, C9orf123 / RFU, N4BP2L2 / Fold change vs veh, N4BP2L2 / RFU, ARFIP1 / Fold change vs veh, ARFIP1 / RFU, FAM179B / Fold change vs veh, FAM179B / RFU, BCL10 / Fold change vs veh, BCL10 / RFU, UHRF1BP1L / Fold change vs veh, UHRF1BP1L / RFU, BET1 / Fold change vs veh, BET1 / RFU, CNOT2 / Fold change vs veh, CNOT2 / RFU, ZNF268 / Fold change vs veh, ZNF268 / Fold change vs veh, ZNF507 / RFU, DGCR2 / Fold change vs veh, DGCR2 / RFU, WDSUB1 / Fold change vs veh, WDSUB1 / Fold change vs veh, HSP90B1 /// MIR3652 / RFU, ADSS / Fold change vs veh, ADSS / RFU, GK / Fold change vs veh, GK / RFU, ZNF148 / Fold change vs veh, ZNF148 / RFU, TAF9 / Fold change vs veh, TAF9 / RFU, SLC1A5 / Fold change vs veh, SLC1A5 / RFU, SLMO2 / Fold change vs veh, SLMO2 / RFU, ABCC4 / Fold change vs veh, ABCC4 / RFU, LOC101060439 /// RAP1B / Fold change vs veh, LOC101060439 /// RAP1B / RFU, RFX7 / Fold change vs veh, RFX7 / RFU, GTPBP10 / Fold change vs veh, GTPBP10 / RFU, CNEP1R1 / Fold change vs veh, CNEP1R1 / RFU, BIVM-ERCC5 /// ERCC5 / Fold change vs veh, BIVM-ERCC5 /// ERCC5 / RFU, ILF3 / Fold change vs veh, ILF3 / RFU 11762660_at / Fold change /veh 11762660_at / RFU VCAN (11757783_s_at) / Fold change /veh VCAN (11757783_s_at) / RFU DDX43 (11728927_at) / Fold change /veh DDX43 (11728927_at) / RFU KRT8 (11758188_x_at) / Fold change /veh KRT8 (11758188_x_at) / RFU NKD1 (11759106_at) / Fold change /veh NKD1 (11759106_at) / RFU SRD5A1 (11742802_a_at) / Fold change /veh SRD5A1 (11742802_a_at) / RFU TPSAB1 /// TPSB2 (11721975_s_at) / Fold change /veh TPSAB1 /// TPSB2 (11721975_s_at) / RFU GSTM3 (11746129_a_at) / Fold change /veh GSTM3 (11746129_a_at) / RFU IL23R (11737362_x_at) / Fold change /veh IL23R (11737362_x_at) / RFU TMEM51 (11727254_a_at) / Fold change /veh TMEM51 (11727254_a_at) / RFU PIWIL2 (11732686_x_at) / Fold change /veh PIWIL2 (11732686_x_at) / RFU ORM1 (11744905_x_at) / Fold change /veh ORM1 (11744905_x_at) / RFU CCDC152 (11743942_at) / Fold change /veh CCDC152 (11743942_at) / RFU ECM1 (11717891_a_at) / Fold change /veh ECM1 (11717891_a_at) / RFU IL23R (11748794_a_at) / Fold change /veh IL23R (11748794_a_at) / RFU TNFAIP8L3 (11732012_x_at) / Fold change /veh TNFAIP8L3 (11732012_x_at) / RFU MBOAT4 (11741988_at) / Fold change /veh MBOAT4 (11741988_at) / RFU 11764193_at / Fold change /veh 11764193_at / RFU TMEM53 (11763286_at) / Fold change /veh TMEM53 (11763286_at) / RFU MAGEB2 (11727129_at) / Fold change /veh MAGEB2 (11727129_at) / RFU TMEM200A (11744735_a_at) / Fold change /veh TMEM200A (11744735_a_at) / RFU CCDC152 (11751479_a_at) / Fold change /veh CCDC152 (11751479_a_at) / RFU FAM211A (11726209_a_at) / Fold change /veh FAM211A (11726209_a_at) / RFU RGS16 (11746705_a_at) / Fold change /veh RGS16 (11746705_a_at) / RFU VCAN (11755009_s_at) / Fold change /veh VCAN (11755009_s_at) / RFU RHOB (11743442_s_at) / Fold change /veh RHOB (11743442_s_at) / RFU RGS16 (11720943_a_at) / Fold change /veh RGS16 (11720943_a_at) / RFU RGS16 (11720944_at) / Fold change /veh RGS16 (11720944_at) / RFU, VPS4B / Fold change vs veh, VPS4B / RFU, CREB1 / Fold change vs veh, CREB1 / RFU, DNAJC13 / Fold change vs veh, DNAJC13 / RFU, GNAQ / Fold change vs veh, GNAQ / RFU, CDK5R1 / Fold change vs veh, CDK5R1 / RFU, ZRANB3 / Fold change vs veh, ZRANB3 / RFU, CUL4A / Fold change vs veh, CUL4A / RFU, CCNY / Fold change vs veh, CCNY / RFU, UFL1 / Fold change vs veh, UFL1 / RFU, COG3 / Fold change vs veh, COG3 / RFU, DIAPH2 / Fold change vs veh, DIAPH2 / RFU, SKA2 / Fold change vs veh, SKA2 / RFU, AFF3 / Fold change vs veh, AFF3 / RFU, LMF1 / Fold change vs veh, LMF1 / RFU, IPO11 / Fold change vs veh, IPO11 / RFU, DFFB / Fold change vs veh, DFFB / RFU, FOXP1 / Fold change vs veh, FOXP1 / RFU, CARD8 / Fold change vs veh, CARD8 / RFU, STRN3 / Fold change vs veh, STRN3 / RFU, ADK / Fold change vs veh, ADK / RFU, RASSF2 / Fold change vs veh, RASSF2 / RFU, WIPF1 / Fold change vs veh, WIPF1 / RFU, LARP1B / Fold change vs veh, LARP1B / RFU, RASA1 / Fold change vs veh, RASA1 / RFU, RB1 / Fold change vs veh, RB1 / RFU, PPFIA1 / Fold change vs veh, PPFIA1 / RFU, MAT2A / Fold change vs veh, MAT2A / RFU, CCT5 / Fold change vs veh, CCT5 / RFU, WDR92 / Fold change vs veh, WDR92 / RFU, CUX1 / Fold change vs veh, CUX1 / RFU, TTC7A / Fold change vs veh, TTC7A / RFU, TMEM135 / Fold change vs veh, TMEM135 / RFU, DEPTOR / Fold change vs veh, DEPTOR / RFU, CPM / Fold change vs veh, CPM / RFU, DNAJB6 / Fold change vs veh, DNAJB6 / RFU, CACNA2D3 / Fold change vs veh, CACNA2D3 / RFU, DTX4 / Fold change vs veh, DTX4 / RFU, TFCP2 / Fold change vs veh, TFCP2 / RFU, GMCL1 /// GMCL1P1 / Fold change vs veh, GMCL1 /// GMCL1P1 / RFU, AEBP2 / Fold change vs veh, AEBP2 / RFU, SNHG1 /// SNORD22 /// SNORD25 /// SNORD26 /// SNORD27 /// SNORD28 /// SNORD29 /// SNORD31 / Fold change vs veh, SNHG1 /// SNORD22 /// SNORD25 /// SNORD26 /// SNORD27 /// SNORD28 /// SNORD29 /// SNORD31 / Fold change (Aza/veh), C12orf56 (ProbeSet 11735607_a_at) / Fold change (ACY-1035/veh), C12orf56 (ProbeSet 11735607_a_at) / Fold change (Aza/veh), FGFR1OP (ProbeSet 11751329_s_at) / Fold change (ACY-1035/veh), FGFR1OP (ProbeSet 11751329_s_at) / Fold change (Aza/veh), VPS36 (ProbeSet 11739960_a_at) / Fold change (ACY-1035/veh), VPS36 (ProbeSet 11739960_a_at) / RFU SYPL1 (11715823_x_at) / Fold change /veh SYPL1 (11715823_x_at) / RFU IGFBP7 (11715501_s_at) / Fold change /veh IGFBP7 (11715501_s_at) / RFU REEP3 (11722064_at) / Fold change /veh REEP3 (11722064_at) / RFU IGLL1 (11728026_x_at) / Fold change /veh IGLL1 (11728026_x_at): dose or concentration left out as unconfirmed
Settings: MV-4-11 cells, 48 hours

With `Nc1ccc(-c2cccs2)cc1NC(=O)c1ccc2c(c1)cc(C1CC1)n2CCN1CCOCC1` [ACY-1035] the “Fold change /veh GIMAP4 (11747438_a_at)” value was 1.02.
